Converted amounts (≈) assume the structure as drawn. Like-named read-outs stand apart in the source and are kept apart here.
What was measured:
[1] = molecular target: T1, beta-catenin/TCF4 engagement (Homo sapiens, UniProt P35222); assay: Nano-BRET target engagement assay (B-cat-Halo & TCF4-Luc in HEK293 cells); type: cell-based; details: absolute IC50; read-out: NanoBRET Abs IC50
T1 construct: expressed in transfected cells; host or cells: HEK293
T1 sequence (P35222 1-781): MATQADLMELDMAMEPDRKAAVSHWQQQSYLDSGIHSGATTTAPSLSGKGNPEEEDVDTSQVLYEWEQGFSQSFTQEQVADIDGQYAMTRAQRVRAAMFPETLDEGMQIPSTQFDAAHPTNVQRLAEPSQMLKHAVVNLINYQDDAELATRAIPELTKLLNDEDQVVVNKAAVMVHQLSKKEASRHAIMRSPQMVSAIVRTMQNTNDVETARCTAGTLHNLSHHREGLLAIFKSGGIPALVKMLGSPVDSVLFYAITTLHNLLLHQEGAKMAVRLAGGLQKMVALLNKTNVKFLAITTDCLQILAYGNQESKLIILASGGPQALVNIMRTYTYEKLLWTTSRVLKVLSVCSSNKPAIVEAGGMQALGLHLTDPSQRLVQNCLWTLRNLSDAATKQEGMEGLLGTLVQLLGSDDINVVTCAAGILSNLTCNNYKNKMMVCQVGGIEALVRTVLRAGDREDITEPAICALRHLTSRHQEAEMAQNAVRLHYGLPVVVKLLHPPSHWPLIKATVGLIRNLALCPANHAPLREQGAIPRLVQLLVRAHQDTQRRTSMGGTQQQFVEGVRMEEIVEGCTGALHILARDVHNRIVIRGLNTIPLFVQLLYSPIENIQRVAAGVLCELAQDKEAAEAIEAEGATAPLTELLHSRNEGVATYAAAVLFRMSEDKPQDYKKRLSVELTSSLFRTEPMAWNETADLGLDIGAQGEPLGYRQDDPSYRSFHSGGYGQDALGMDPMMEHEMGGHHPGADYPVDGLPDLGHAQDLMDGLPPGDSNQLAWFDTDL

[2] = Solubility in PBS; type: physicochemical
Procedure, shortened: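 Steps: ultracentrifuge the peptide PBS solution, inject the supernatant on HPLC, inject a 50 μM peptide DMSO solution as reference, then calculate solubility as area ratio (PBS/DMSO) × 50 uM.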

[3] = molecular target: T2, full-length beta-Catenin (Uniprot ID P35222) (Homo sapiens, UniProt P35222); assay: Fluorescence polarization IC50 (beta-catenin / 5FAM-TCF4 10-53 competition); type: binding; details: fluorescence polarization
T2 construct: 10 nM full-length beta-Catenin (Uniprot ID P35222)
T2 sequence (P35222 1-781): T1 sequence (P35222 1-781)

Compound	IC50 [1]	Solubility [2]	IC50 ([3]; read-out: beta-Catenin FP IC50)	Solubility ([2]; Solubility (uM))	IC50 ([3]; beta-catenin, read-out: FP EC50)
CC(=O)N1CCC[C@]12CC=CCCCC1(CCCC=CCCCOC(=O)N3CC[C@@](C(=O)N[C@@H](Cc4ccccc4Cl)C(=O)N[C@@H](Cc4csc5ccccc45)C(=O)N[C@@H](CO)C(N)=O)(C3)NC(=O)[C@H]([C@@H](C)O)NC(=O)[C@H](Cc3ccccc3)NC(=O)[C@H](CC(C)C)NC(=O)[C@H](CC(C)C)NC(=O)[C@H](CC(=O)O)NC(=O)[C@H](CC(=O)O)NC1=O)NC(=O)[C@H](CC1CCCCC1)NC(=O)[C@H](CC(=O)O)NC2=O (stereo partly drawn) [I-1152, Ac-PL3-Asp-Cha-B5-Asp-Asp-Leu-Leu-Phe-Thr-PyrS2-2C1F-BztA-Ser-NH2]	14200 nM	10 µM (≈ 20 µg/mL)	65 nM	–	–
CC(=O)N1CCC[C@]12CC=CCCCC1(CCCC=CCCCOC(=O)N3CC[C@@](C(=O)N[C@@H](Cc4ccccc4Cl)C(=O)N[C@@H](Cc4csc5ccccc45)C(=O)N[C@@H](CO)C(N)=O)(C3)NC(=O)[C@H]([C@@H](C)O)NC(=O)[C@H](Cc3ccccc3)NC(=O)[C@H](CC(C)C)NC(=O)[C@H](C)NC(=O)[C@H](CC(=O)O)NC(=O)[C@H](CC(=O)O)NC1=O)NC(=O)[C@H](Cc1ccccc1)NC(=O)[C@H](CC(=O)O)NC2=O (stereo partly drawn) [I-1157, Ac-PL3-Asp-Phe-B5-Asp-Asp-Ala-Leu-Phe-Thr-PyrS2-2C1F-BztA-Ser-NH2]	> 20000 nM	–	36 nM	15 µM (≈ 29.3 µg/mL)	–
CC(=O)N1CCC[C@]12CC=CCCCC1(CCCC=CCCCOC(=O)N3CC[C@@](C(=O)N[C@@H](Cc4ccsc4)C(=O)N[C@@H](Cc4csc5ccccc45)C(=O)N[C@@H](CO)C(N)=O)(C3)NC(=O)[C@H]([C@@H](C)O)NC(=O)[C@H](Cc3ccccc3)NC(=O)[C@H](C)NC(=O)[C@H](C)NC(=O)[C@H]([C@@H](C)O)NC(=O)[C@H](CC(=O)O)NC1=O)NC(=O)[C@H](CC(C)(C)C)NC(=O)[C@H](CC(=O)O)NC2=O (stereo partly drawn) [I-1170, Ac-PL3-Asp-Npg-B5-Asp-Thr-Ala-Ala-Phe-Thr-PyrS2-3Thi-BztA-Ser-NH2]	13500 nM	10 µM (≈ 18.5 µg/mL)	15 nM	–	–
CC(=O)N1CCC[C@]12CC=CCCCC1(CCCC=CCCCOC(=O)N3CC[C@@](C(=O)N[C@@H](Cc4ccsc4)C(=O)N[C@@H](Cc4csc5ccccc45)C(=O)N[C@@H](CCC(N)=O)C(N)=O)(C3)NC(=O)[C@H]([C@@H](C)O)NC(=O)[C@H](Cc3ccccc3)NC(=O)[C@H](C)NC(=O)[C@H](C)NC(=O)[C@H]([C@@H](C)O)NC(=O)[C@H](CC(=O)O)NC1=O)NC(=O)[C@H](CC1CCCCC1)NC(=O)[C@H](CC(=O)O)NC2=O (stereo partly drawn) [I-1173, Ac-PL3-Asp-Cha-B5-Asp-Thr-Ala-Ala-Phe-Thr-PyrS2-3Thi-BztA-Gln-NH2]	17200 nM	10 µM (≈ 19.2 µg/mL)	12 nM	–	–
CC(=O)N1CCC[C@]12CC=CCCCC1(CCCC=CCCCOC(=O)N3CC[C@@](C(=O)N[C@@H](Cc4ccccc4Cl)C(=O)N[C@@H](Cc4csc5ccccc45)C(=O)N[C@@H](CCC(N)=O)C(N)=O)(C3)NC(=O)[C@H]([C@@H](C)O)NC(=O)[C@H](Cc3ccccc3)NC(=O)[C@H](C)NC(=O)[C@H](C)NC(=O)[C@H]([C@@H](C)O)NC(=O)[C@H](CC(=O)O)NC1=O)NC(=O)[C@H](CC1CCCCC1)NC(=O)[C@H](CC(=O)O)NC2=O (stereo partly drawn) [I-1175, Ac-PL3-Asp-Cha-B5-Asp-Thr-Ala-Ala-Phe-Thr-PyrS2-2C1F-BztA-Gln-NH2]	27300 nM	10 µM (≈ 19.5 µg/mL)	24 nM	–	–
CC(=O)N1CCC[C@]12CC=CCCCC1(CCCC=CCCCOC(=O)N3CC[C@@](C(=O)N[C@@H](Cc4ccsc4)C(=O)N[C@@H](Cc4csc5ccccc45)C(=O)N[C@@H](CCC(N)=O)C(N)=O)(C3)NC(=O)[C@H](CC(C)C)NC(=O)[C@H](Cc3ccccc3)NC(=O)[C@H](C)NC(=O)C(C)(C)NC(=O)[C@H](CC(=O)O)NC(=O)[C@H](CC(=O)O)NC1=O)NC(=O)[C@H](CC(C)(C)C)NC(=O)[C@H](CC(=O)O)NC2=O (stereo partly drawn) [I-1177, Ac-PL3-Asp-Npg-B5-Asp-Asp-Aib-Ala-Phe-Leu-PyrS2-3Thi-BztA-Gln-NH2]	4300 nM	–	25 nM	35 µM (≈ 67.6 µg/mL)	–
CC(=O)N1CCC[C@H]1C(=O)N[C@@H](CC(=O)O)C(=O)N[C@@H](CC(C)(C)C)C(=O)N[C@]1(C)CCCC=CCCCOC(=O)N2CC[C@@](C(=O)N[C@@H](Cc3ccsc3)C(=O)N[C@@H](Cc3csc4ccccc34)C(=O)N[C@@H](CCC(N)=O)C(N)=O)(C2)NC(=O)[C@H](CC(C)C)NC(=O)[C@H](Cc2ccccc2)NC(=O)[C@H](C)NC(=O)[C@H](C)NC(=O)[C@H](CC(=O)O)NC(=O)[C@H](CC(=O)O)NC1=O [I-1181, Ac-Pro-Asp-Npg-R5-Asp-Asp-Ala-Ala-Phe-Leu-PyrS2-3Thi-BztA-Gln-NH2]	> 20000 nM	50 µM (≈ 92.6 µg/mL)	297 nM	–	226 nM

Next, values leading:

IC50 [1]	Solubility [2]	IC50 ([3]; read-out: beta-Catenin FP IC50)	Solubility ([2]; Solubility (uM))	IC50 ([3]; beta-catenin, read-out: FP EC50)	Compound
25300 nM	10 µM (≈ 19.6 µg/mL)	30 nM	–	–	CC(=O)N1CCC[C@]12CC=CCCCC1(CCCC=CCCCOC(=O)N3CC[C@@](C(=O)N[C@@H](Cc4ccccc4Cl)C(=O)N[C@@H](Cc4csc5ccccc45)C(=O)N[C@@H](CO)C(N)=O)(C3)NC(=O)[C@H]([C@@H](C)O)NC(=O)[C@H](Cc3ccccc3)NC(=O)[C@H](CC(C)C)NC(=O)[C@H](C)NC(=O)[C@H](CC(=O)O)NC(=O)[C@H](CC(=O)O)NC1=O)NC(=O)[C@H](CC1CCCCC1)NC(=O)[C@H](CC(=O)O)NC2=O (stereo partly drawn) [I-1151, Ac-PL3-Asp-Cha-B5-Asp-Asp-Ala-Leu-Phe-Thr-PyrS2-2C1F-BztA-Ser-NH2]
14600 nM	–	14 nM	14 µM (≈ 26.5 µg/mL)	–	CC(=O)N1CCC[C@]12CC=CCCCC1(CCCC=CCCCOC(=O)N3CC[C@@](C(=O)N[C@@H](Cc4ccsc4)C(=O)N[C@@H](Cc4csc5ccccc45)C(=O)N[C@@H](CCC(N)=O)C(N)=O)(C3)NC(=O)[C@H]([C@@H](C)O)NC(=O)[C@H](Cc3ccccc3)NC(=O)[C@H](C)NC(=O)[C@H](C)NC(=O)[C@H]([C@@H](C)O)NC(=O)[C@H](CC(=O)O)NC1=O)NC(=O)[C@H](CC(C)(C)C)NC(=O)[C@H](CC(=O)O)NC2=O (stereo partly drawn) [I-1166, Ac-PL3-Asp-Npg-B5-Asp-Thr-Ala-Ala-Phe-Thr-PyrS2-3Thi-BztA-Gln-NH2]
11700 nM	10 µM (≈ 19 µg/mL)	34 nM	–	–	CC(=O)N1CCC[C@]12CC=CCCCC1(CCCC=CCCCOC(=O)N3CC[C@@](C(=O)N[C@@H](Cc4ccsc4)C(=O)N[C@@H](Cc4csc5ccccc45)C(=O)N[C@@H](CCC(N)=O)C(N)=O)(C3)NC(=O)[C@H](CC(C)C)NC(=O)[C@H](Cc3ccccc3)NC(=O)[C@H](C)NC(=O)[C@H](C)NC(=O)[C@H]([C@@H](C)O)NC(=O)[C@H](CC(=O)O)NC1=O)NC(=O)[C@H](CC(C)(C)C)NC(=O)[C@H](CC(=O)O)NC2=O (stereo partly drawn) [I-1167, Ac-PL3-Asp-Npg-B5-Asp-Thr-Ala-Ala-Phe-Leu-PyrS2-3Thi-BztA-Gln-NH2]
31400 nM	10 µM (≈ 19.2 µg/mL)	25 nM	–	–	CC(=O)N1CCC[C@]12CC=CCCCC1(CCCC=CCCCOC(=O)N3CC[C@@](C(=O)N[C@@H](Cc4ccccc4Cl)C(=O)N[C@@H](Cc4csc5ccccc45)C(=O)N[C@@H](CCC(N)=O)C(N)=O)(C3)NC(=O)[C@H]([C@@H](C)O)NC(=O)[C@H](Cc3ccccc3)NC(=O)[C@H](C)NC(=O)[C@H](C)NC(=O)[C@H]([C@@H](C)O)NC(=O)[C@H](CC(=O)O)NC1=O)NC(=O)[C@H](CC(C)(C)C)NC(=O)[C@H](CC(=O)O)NC2=O (stereo partly drawn) [I-1168, Ac-PL3-Asp-Npg-B5-Asp-Thr-Ala-Ala-Phe-Thr-PyrS2-2C1F-BztA-Gln-NH2]

Reference: patent US20240116985A1, “STAPLED PEPTIDES AND METHODS THEREOF” (priority 2020, published 2024)
